Source: US20260015574A1, “METHODS FOR SHORTENING LAG PHASE DURATION IN MICROORGANISMS” (YEDA RESEARCH AND DEVELOPMENT CO. LTD., priority 2022, published 2026)

Legend:
[1] = system: Phaeobacter inhibens DSM 17395; experiment: Growth / lag phase shortening assay of P. inhibens pure cultures with glucose; assay type: cell-based
Description: ASW was adjusted to pH 8 using HCl. If not otherwise stated, the medium was further supplemented with a source of carbon (glucose, 1 mM), nitrogen (NH4Cl, 5 mM), and sulfur (Na2SO4, 33 mM), referred to as ASW+CNS. […] A 96-well Tecan Infinite M Plex plate reader was used for high-resolution monitoring of bacterial growth dynamics at 30° C. An ImageStreamX Flow Imager system (Amnis) was used to characterize bacterial populations during the lag phase (FIG. 6). The growth of bacteria in co-culture with algae was monitored by counting colony forming units (CFU) on ½ YTSS agar plates. The growth of algae was monitored with a CellStream flow cytometer (Merck, Darmstadt, Germany).
To test whether methylated compounds affect the growth of bacteria, the inventors cultivated bacterial pure cultures with glucose as main growth substrate and supplemented the medium with the well-studied methylated compound dimethylsulfoniopropionate (DMSP). DMSP that is naturally produced by microalgae and found in detectable levels in seawater, is known to be metabolized by various bacteria. […] To quantify the lag phase shortening effect, the inventors calculated the Δlag time, which is the time difference between the commence of exponential growth in control cultures compared to treated cultures (FIG. 5B).
To reflect the natural low bacterial abundance in the oligotrophic ocean with low microalgal productivity, the current bacterial growth experiments were routinely initiated with an optical density (OD) of 0.00001. Such low initial ODs challenge the detection of cell divisions that occur prior to reaching an OD of at least 0.001, which is the theoretical limit of detection. To determine the actual length of the lag phase, the inventors analyzed bacterial cultures using imagining flow cytometry.

P. inhibens = experiment: Imaging flow cytometry of bacterial populations during the lag phase; assay type: cell-based, Phaeobacter inhibens; details: DMSP-treated cultures
Description: The bacterial strain Phaeobacter inhibens DSM 17395 was purchased from the German collection of microorganisms and cell cultures (DSMZ, Braunschweig, Germany) and stored at −80° C. with 20% glycerol. Routine cultivation of P. inhibens was conducted at 30° C. in artificial seawater medium (ASW) based on Goyet and Poisson (1989). […] A 96-well Tecan Infinite M Plex plate reader was used for high-resolution monitoring of bacterial growth dynamics at 30° C. […] The growth of bacteria in co-culture with algae was monitored by counting colony forming units (CFU) on ½ YTSS agar plates. The growth of algae was monitored with a CellStream flow cytometer (Merck, Darmstadt, Germany).
To reflect the natural low bacterial abundance in the oligotrophic ocean with low microalgal productivity, the current bacterial growth experiments were routinely initiated with an optical density (OD) of 0.00001. […] To determine the actual length of the lag phase, the inventors analyzed bacterial cultures using imagining flow cytometry. […]

[2] = system: marine bacterium Vibrio sp.; experiment: Lag phase shortening in Vibrio sp.; assay type: cell-based; details: 2 μM compound
Description: The bacterial strain Phaeobacter inhibens DSM 17395 was purchased from the German collection of microorganisms and cell cultures (DSMZ, Braunschweig, Germany) and stored at −80° C. with 20% glycerol. Routine cultivation of P. inhibens was conducted at 30° C. in artificial seawater medium (ASW) based on Goyet and Poisson (1989). The ASW medium contained mineral salts (NaCl, 409.41 mM; Na2SO4, 28.22 mM; KCl, 9.08 mM; KBr, 0.82 mM; NaF, 0.07 mM; Na2CO3, 0.20 mM; NaHCO3, 2 mM; MgCl2, 50.66 mM; SrCl2, 0.09 mM), L1 vitamins (thiamine HCl, 100 μg/L; biotin, 0.5 μg/L; vitamin B12, […]), L1 trace elements (Na2EDTA·2H2O, 4.36 mg/L; FeCl3·6H2O, 3.15 mg/L; MnCl2·4H2O, 178.1 μg/L; ZnSO4·7H2O, 23.0 μg/L; CoCl2·6H2O, 11.9 μg/L; CuSO4·5H2O, 2.5 μg/L; Na2MoO4·2H2O, 19.9 μg/L; H2SeO3, 1.29 μg/L; NiSO4·6H2O, 2.63 μg/L; Na3 VO4, 1.84 μg/L; K2CrO4, 1.94 μg/L), and L1 nutrients (NaNO3, 882 μM; NaH2PO4, 36.22 μM). ASW was adjusted to pH 8 using HCl. […] A 96-well Tecan Infinite M Plex plate reader was used for high-resolution monitoring of bacterial growth dynamics at 30° C. […] The growth of bacteria in co-culture with algae was monitored by counting colony forming units (CFU) on ½ YTSS agar plates. The growth of algae was monitored with a CellStream flow cytometer (Merck, Darmstadt, Germany). […]

[3] = artificial seawater medium, 1 mM glucose, micromolar DMSP

Question: How did the “amount of DMSP per cell corresponding to the minimal effective concentration” value ([1]; 2 nM DMSP per 25,000 cells/mL) turn out when `C[S+](C)CCC(=O)[O-]` [DMSP, dimethylsulfoniopropionate] was run?
Answer: 80 amol

Question: And the “lag phase shortening in the presence of TMP” value ([1]; 2 μM DMSP, culture with TMP supplemented with nucleotides)?
Answer: still elicited lag phase shortening

Question: And the growth rate [1, 3]?
Answer: not affected

Question: And the lag time [1, 3]?
Answer: the lag time was shortened

Question: What about the “lag phase shortening effect under salt stress” value ([1]; high salt conditions (FIG. 19A)) of the same compound?
Answer: enhance the lag phase shortening effect

Question: And the “growth of the bacterium” value ([1]; micromolar concentrations of DMSP, glucose as main growth substrate)?
Answer: stimulate the growth of the bacterium

Question: And the “minimal DMSP concentration that triggered a significant lag phase shortening” value ([1]; per 25,000 cells/mL (OD 0.00001), glucose as main carbon source)?
Answer: 2 nM

Question: What about the “lag phase shortening effect under temperature stress” value ([1]; temperatures that deviate from the 30° C. optimum (FIG. 19B)) of the same compound?
Answer: enhance the lag phase shortening effect

Question: What about the “time at which transition from aggregates to single-celled bacteria is concluded” value (P. inhibens) of the same compound?
Answer: 3 h

Question: What about the lag phase shortening [2] of the same compound?
Answer: induction of the lag phase shortening
